Data published in patent publication US6461997B1, “Triazole sulfones having herbicidal activity” (Monsanto Technology LLC, priority 1999, dated 2002).

Key:
wheat (TRZAW) = assay: Selectivity test, PPI, cool season crop; assay type: in vivo, Triticum aestivum; conditions: Triticum aestivum, PPI application, read-out: Percent inhibition TRZAW
Method: (§1) A pre-prepared topsoil mixture (described above) was placed in a pot and compacted to a depth of 1.0 to 1.25 cm from the top of the pot. Seeds of each of several monocotyledonous and dicotyledonous annual plant species were placed on top of the soil. A sufficient quantity of soil to cover the seeds and level fill the pot was weighed into an open container. A known amount of the test compound was dissolved or suspended in an organic solvent and applied by spraying to this cover soil. The cover soil was thoroughly mixed to distribute the test compound throughout the cover soil, and was then applied as a cover layer over the seeds. Untreated soil was used as a cover layer for control pots. After treatment the plants were placed in a greenhouse where they received 0.64 cm of overhead irrigation. All subsequent watering consisted of a light overhead mist and/or subirrigation as needed for germination and growth. Tables 9 and 10 below relate to warm season plant species which were placed after pre-emergence treatment in a greenhouse with a 30/21° C. day/night temperature regime. Tables 11 and 12 below relates to cool season plant species placed after pre-emergence treatment in a greenhouse or growth chamber with an 18/13° C. day/night temperature regime. Only the compounds of Examples 1, 6, 8, 11, 13 and 15-20 were included in PPI tests.
(§2) Approximately 14 days after planting and treating, the plants were observed and herbicidal efficacy recorded as percent inhibition by comparison with untreated plants.
Additional pre-emergence and PPI tests were conducted by the procedures described above, on warm and cool season weed species in the presence of crop species, to assess herbicidal selectivity. Crop species included in warm season tests were corn (Zea mays, ZEAMX), rice (Oryza sativa, ORYSA) and soybean (Glycine max, GLYMX). Crop species included in cool season tests were wheat (Triticum aestivum, TRZAW), barley (Hordeunm vulgare, HORVX) and oilseed rape (Brassica napus, BRSNS).
Tables 15 and 16 relate to pre-emergence and PPI tests respectively on warm season species. Table 17 relates to pre-emergence tests on cool season species.

[1] = tested on: AGSST (creeping bentgrass); assay: Pre-plant incorporated (PPI) herbicidal activity, cool season; assay type: in vivo, Agrostis stolonifera
Method: (§3) In another set of tests, the pre-plant incorporated (PPI) activity of compounds of this invention was evaluated on the same species as for the pre-emergence tests described above. In the PPI tests the following procedure, designed to simulate PPI application, was used.
as §1, §2

[2] = tested on: PANMI (wild proso millet); assay: Pre-plant incorporated (PPI) herbicidal activity, warm season; assay type: in vivo, Panicum miliaceum
Method: as §3, §1, §2

[3] = tested on: CHEAL (common lambsquarters); assay: as above; assay type: in vivo, Chenopodium album
Method: as §3, §1, §2

SETFA (giant foxtail) = assay: as above; assay type: in vivo, Setaria faberi
Method: as §3, §1, §2

ALOMY (blackgrass) = assay: Pre-emergence herbicidal activity, cool season; assay type: in vivo, Alopecurus myosuroides; conditions: GR80 = lowest tested rate (300, 100, 30, 10 g/ha) with 80% or greater inhibition; approx. 14 days after treating; 18/13° C.
Summary of the method: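 Activity is expressed as the rate giving 80% inhibition, with 300, 100, 30 and 10 g/ha typically tested. An asterisk marks activity short of 80% at the top rate. Warm-season grasses were held at 30/21 °C; cool-season blackgrass and wild buckwheat at 18/13 °C; scoring at about 14 days.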

AMARE (redroot pigweed) = assay: Pre-plant incorporated (PPI) herbicidal activity, warm season; assay type: in vivo, Amaranthus retroflexus
Method: as §3, §1, §2

ECHCG (barnyardgrass) = assay: Pre-emergence herbicidal activity, warm season; assay type: in vivo, Echinochloa crus-galli; conditions: GR80 = lowest tested rate (300, 100, 30, 10 g/ha) with 80% or greater inhibition; approx. 14 days after treating; 30/21° C.
Summary of the method: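 Seeds sown in sterilised fertilised topsoil received surface-applied compound in 50:50 acetone/water, typically at 300, 100, 30 and 10 g/ha, then greenhouse-grown at 30/21° C (warm-season species) or 18/13° C (cool-season species). Percent inhibition versus untreated plants was scored at about 14 days, giving GR80; an asterisk marks activity short of 80% at the top rate.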

SOLNI (black nightshade) = assay: Pre-plant incorporated (PPI) herbicidal activity, warm season; assay type: in vivo, Solanum nigrum
Method: as §3, §1, §2

[4] = tested on: GALAP (catchweed bedstraw); assay: Pre-emergence herbicidal activity, cool season; assay type: in vivo, Galium aparine; conditions: lowest tested rate with 80% or greater inhibition; rates 300, 100, 30, 10 g/ha; about 14 days
Summary of the method: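 GR80 values derive from percent inhibition relative to untreated plants, read roughly 14 days after sowing and pre-emergence soil-surface treatment (compound in 50:50 acetone/water; rates typically 10, 30, 100, 300 g/ha). Warm-season weeds grew at 30/21° C day/night, cool-season ones at 18/13° C; an asterisk marks activity without reaching 80% at the highest rate.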

[5] = pre-plant incorporated, lowest tested rate with 80% or greater inhibition, about 14 days
[6] = pre-plant incorporated, GR80 = lowest tested rate with 80% or greater inhibition, approx. 14 days after treating, 30/21° C.

CCSC(F)(F)S(=O)(=O)c1ncn(C(=O)N(CC)CC)n1 [Example 8, 1-(N,N-diethylcarbamoyl)-3-[difluoro(ethylthio)methylsulfonyl]-1,2,4-triazole]
inhibition at 30 g/ha (wheat (TRZAW); 30 g/ha): 0% | inhibition at 100 g/ha (wheat (TRZAW); 100 g/ha): 0% | inhibition at 300 g/ha (wheat (TRZAW); 300 g/ha): 20% | inhibition at 900 g/ha (wheat (TRZAW); 900 g/ha): 60% | inhibition at 30 g/ha ([1]; Agrostis stolonifera, weed, PPI application, 30 g/ha, read-out: Percent inhibition AGSST): 100% | inhibition at 100 g/ha ([1]; Agrostis stolonifera, weed, PPI application, 100 g/ha, read-out: Percent inhibition AGSST): 100% | inhibition at 300 g/ha ([1]; Agrostis stolonifera, weed, PPI application, 300 g/ha, read-out: Percent inhibition AGSST): 100% | inhibition at 900 g/ha ([1]; Agrostis stolonifera, weed, PPI application, 900 g/ha, read-out: Percent inhibition AGSST): 100% | PPI activity GR80, AGSST [1, 5]: 30 g/ha | inhibition at 30 g/ha ([2]; Panicum miliaceum, PPI application, 30 g/ha, read-out: Percent inhibition PANMI): 100% | inhibition at 100 g/ha ([2]; Panicum miliaceum, PPI application, 100 g/ha, read-out: Percent inhibition PANMI): 100% | inhibition at 300 g/ha ([2]; Panicum miliaceum, PPI application, 300 g/ha, read-out: Percent inhibition PANMI): 100% | inhibition at 900 g/ha ([2]; Panicum miliaceum, PPI application, 900 g/ha, read-out: Percent inhibition PANMI): 100% | PPI activity GR80, PANMI [2, 5]: 10 g/ha | inhibition at 30 g/ha ([3]; Chenopodium album, PPI application, 30 g/ha, read-out: Percent inhibition CHEAL): 70% | inhibition at 100 g/ha ([3]; Chenopodium album, PPI application, 100 g/ha, read-out: Percent inhibition CHEAL): 100% | inhibition at 300 g/ha ([3]; Chenopodium album, PPI application, 300 g/ha, read-out: Percent inhibition CHEAL): 100% | inhibition at 900 g/ha ([3]; Chenopodium album, PPI application, 900 g/ha, read-out: Percent inhibition CHEAL): 100% | PPI activity (GR80) CHEAL [3, 6]: 30 g/ha | inhibition at 30 g/ha (SETFA (giant foxtail); Setaria faberi, PPI application, 30 g/ha, read-out: Percent inhibition SETFA): 90% | inhibition at 100 g/ha (SETFA (giant foxtail); Setaria faberi, PPI application, 100 g/ha, read-out: Percent inhibition SETFA): 100% | inhibition at 300 g/ha (SETFA (giant foxtail); Setaria faberi, PPI application, 300 g/ha, read-out: Percent inhibition SETFA): 100% | inhibition at 900 g/ha (SETFA (giant foxtail); Setaria faberi, PPI application, 900 g/ha, read-out: Percent inhibition SETFA): 100% | PPI activity GR80, SETFA (SETFA (giant foxtail); [5]): 30 g/ha | Pre-emergence activity (GR80) ALOMY (ALOMY (blackgrass)): 100 g/ha | inhibition at 30 g/ha (AMARE (redroot pigweed); Amaranthus retroflexus, PPI application, 30 g/ha, read-out: Percent inhibition AMARE): 100% | inhibition at 100 g/ha (AMARE (redroot pigweed); Amaranthus retroflexus, PPI application, 100 g/ha, read-out: Percent inhibition AMARE): 100% | inhibition at 300 g/ha (AMARE (redroot pigweed); Amaranthus retroflexus, PPI application, 300 g/ha, read-out: Percent inhibition AMARE): 100% | inhibition at 900 g/ha (AMARE (redroot pigweed); Amaranthus retroflexus, PPI application, 900 g/ha, read-out: Percent inhibition AMARE): 100% | PPI activity (GR80) AMARE (AMARE (redroot pigweed); [6]): 100 g/ha | Pre-emergence activity (GR80) ECHCG (ECHCG (barnyardgrass)): 100 g/ha | inhibition at 30 g/ha (SOLNI (black nightshade); Solanum nigrum, PPI application, 30 g/ha, read-out: Percent inhibition SOLNI): 50% | inhibition at 100 g/ha (SOLNI (black nightshade); Solanum nigrum, PPI application, 100 g/ha, read-out: Percent inhibition SOLNI): 100% | inhibition at 300 g/ha (SOLNI (black nightshade); Solanum nigrum, PPI application, 300 g/ha, read-out: Percent inhibition SOLNI): 100% | inhibition at 900 g/ha (SOLNI (black nightshade); Solanum nigrum, PPI application, 900 g/ha, read-out: Percent inhibition SOLNI): 100% | PPI activity (GR80) SOLNI (SOLNI (black nightshade); [6]): 100 g/ha | Pre-emergence activity GR80, GALAP [4]: [empty]
